Test results reported in US20070116645A1, “Methods and compositions for inhibiting cholesterol uptake” (priority 2004, published 2007).
“Also recorded” adds a separate entry of the source.

Assays:
CAV1-ANX2b heterocomplex = assay: Immunoprecipitation and immunoblot for the CAV1-ANX2b heterocomplex in morpholino-injected embryos; format: in vivo, zebrafish; conditions: for CAV1-ANX2b heterocomplex present / ANX2b protein detected / CAV1 protein detected: 48 hpf embryos, MO injected at 1-8 cell stage; for ANX2b protein detected / CAV1 protein detected: FIG. 3A
Protocol: (§1) All morpholino oligonucleotides were commercially obtained (GeneTools LLC, Philomath, Oreg.). Sequences used were: cav1, 5′-[…]-3′ (SEQ ID NO: 10); anx2b, 5′-[…]-3′ (SEQ ID NO: 11); anx2b (4 base mismatch), 5′-GCCAATT TCGTTAGTAGTTGAAGAG-3 (SEQ ID NO: 12)′; anx2a, 5′-[…]-3′ (SEQ ID NO: 13). MOs were dissolved in Danieau buffer (3) at a concentration of (1-3 μg/μl) and pressure injected into the yolk of early stage larvae (1-8 cell stage) as described (3).
The embryos were lysed in 1 ml of buffer (150 mM NaCl, 1.0% NP-40, 0.5% deoxycholate, 0.1% SDS, 50 mM Tris, pH 8.0) and protein amounts determined by Lowry. Equal amounts of lysate (50 ug) were mixed together in the lysis buffer for 1 hour at 37 °C. At the end of the incubation protein A-sepharose beads (blocked with lysis buffer and 30 mg/ml BSA) were used to pre-clear the samples. Pre-cleared samples were than incubated for 18 hours at 4° C. with the appropriate antibody (2 ug/sample) before adding blocked, protein A-sepharose beads and incubating an additional 2 hours at 4° C. The beads were collected by centrifugation, washed five times in high salt RIPA buffer (500 mM NaCl). The samples were than analyzed by SDS-PAGE and immunoblot.

zebrafish embryos [1] = assay: Embryo lipid composition by SPE and GC-MS (cholesterol, cholesteryl ester, triglycerides); format: in vivo; conditions: 72 hpf embryos, FIG. 5C
Protocol: Approximately 80 embryos at 72 hpf were placed in 0.7 ml of MBST/OG (25 mM MES, pH 6.5, 0.15 M NaCl, 1% (v/v) Triton X-100, 60 mM octylglucoside, 0.1% (w/v) SDS) and homogenized with a Tissue-Tearor™ homogenizer (Biospec Products, Inc). The sample was then sonicated (50 watts) for ten seconds, three times on ice, centrifuged at 1000×g for 5 minutes and the supernatant collected. Neutral lipids were isolated by Solid Phase Extraction (SPE) on an Oasis HLB 5 cc/200 mg LP Glass Cartridges (Waters, Milford Mass.). The columns were pre-conditioned with 3 ml of methyl tetr-butyl ether, then 3 ml methanol, and finally 3 ml of water. The sample (0.5 ml) was mixed with acetic acid (1 ml) and 5α-androstane-3α-17β-diol (recovery standard, 40 μl) and immediately applied to the column. The column was washed with 2 ml of 2% acetic acid followed by 2 ml of methanol (2%):acetic acid (2%). Neutral lipids were eluted with 3 ml of methyl tetr-butyl ether:methanol:acetic acid (75:23:2). The eluted material was dried under nitrogen, dissolved in 150 μl of hexane:isopropanol (3:2) and transferred to a gas chromatography vial. The material was dissolved in 20 μl of hexamethyldisilazane: pentafluoropropionic anhydride:acetonitrile (100:2:20) for 20 minutes at room temperature and […] was then injected onto a Chemstation gas chromatograph with a mass selective detector, Model 6890 (Agilent Technologies, Wilmington, Del.) and equipped with a SPE HT5 Aluminum Clad Fused Silica Capillary Column, 12 m, 0.32 mm ID, 0.1 um film (Supelco, Bellefonte, Pa.). The inlet temperature was 220° C., the interface temperature was 340° C. and the oven program was 140° C., hold 3 min, 20° C./min to 380° C., hold 5 min. Method of lipid detection was SIM mode with the following mass numbers: 416 for 5α-androstane-3α-17β-diol, 436 for TMS-cholesterol, 368 for cholesterol esters, 98 for triglycerides. A two step procedure was used to quantify the lipids. […]

zebrafish embryos [2] = assay: Developmental phenotype of morpholino-injected embryos (morphology, myoD in situ hybridization); format: in vivo
Protocol: as §1
Methods for breeding and raising zebrafish were followed as described (21). Embryos were obtained from natural matings of wild-type (Oregon, AB) fish and staged according to criteria previously outlined (22) and by hours post-fertilization (hpf). Digoxigenin-labeled RNA probes synthesized for each gene were hybridized to embryos or larvae at various developmental stages. In situ hybridization for anx2b and cav1 expression was carried out as previously described (22).

zebrafish embryos [3] = assay: Uptake of 14C-labeled glucose in embryos; format: in vivo; conditions: 5 dpf embryos, data not shown
Protocol: Embryos (uninjected or anx2b MO injected) at 5 dpf were placed at ten per tube in 0.5 ml embryo medium (21) containing methyl-D-glucose, 3-O-[glucose-^14C(U)] (American Radiolabeled Chemicals, Inc.) at a concentration of 12.5 μM and incubated at room temperature for 2 hours. Embryos were then chased with 0.5 ml embryo medium with 125 μM unlabeled glucose and incubated 30 minutes, then rinsed three times with chase solution, transferred to fresh tubes, vigorously homogenized with a pestle, and transferred into scintillation fluid for liquid scintillation counting. Three separate trials with 2 or 3 tubes each of uninjected and injected embryos were performed.

zebrafish larvae = assay: In vivo assay for cholesterol transport (NBD-cholesterol intestinal fluorescence); conditions: 5 dpf larvae, three independent experiments, ANOVA p<0.00001
Protocol: Embryos (uninjected or anx2b MO injected) at 5 dpf were labeled with NBD-cholesterol (1,26) and blind-sorted into three groups based on intestinal fluorescence, each assigned a numerical value: 1=no or weak fluorescence, 2=moderate, 3=strong; total n=41 uninjected, 55 injected.
Zebrafish larvae were labeled (2 h) with NBD-Cholesterol prepared as previously described (1) in embryo medium (21), anesthetized (tricaine, 170 ug/ml) and placed in depression slides. Fluorescent images were captured using a Zeiss Axiocam 2 mounted on a Leica MZFL-III. For statistical analysis intestinal fluorescence was scored on a three point scale (weak, moderate and bright) and analyzed (ANOVA).

In the case of “anx2a MO: morpholino antisense oligonucleotide against zebrafish anx2a, 5′-CTAAGAACTCAGAGACCAAAGCCAT-3′ (SEQ ID NO: 13) (all phosphorodiamidate morpholino (PMO)) [reference compound]”, the CAV1-ANX2b heterocomplex present (CAV1-ANX2b heterocomplex) is reported as “contained the CAV1-ANX2b heterocomplex exactly like the uninjected embryos”.
“anx2b MO containing 4 bases mismatched: control morpholino, anx2b with 4 base mismatch, 5′-GCCAATT TCGTTAGTAGTTGAAGAG-3 (SEQ ID NO: 12) (antisense GCCAATTTCGTTAGTAGTTGAAGAG; all phosphorodiamidate morpholino (PMO); mismatch control morpholino) [reference compound]” was tested, and the CAV1-ANX2b heterocomplex present (CAV1-ANX2b heterocomplex) was “contained the CAV1-ANX2b heterocomplex exactly like the uninjected embryos”.
With “anx2b MO: morpholino antisense oligonucleotide against zebrafish anx2b, 5′-GCCATTTTCCTTAGTTGTTGTAGAG-3′ (SEQ ID NO: 11) (all phosphorodiamidate morpholino (PMO))” the “Level of cholesterol versus uninjected embryos” value (zebrafish embryos [1]) was “significantly lower”, the “Level of cholesteryl ester versus uninjected embryos” value (zebrafish embryos [1]) was “significantly lower” and the “Level of triglycerides versus uninjected embryos” value (zebrafish embryos [1]) was “unaffected”. For the same substance, the Developmental abnormalities (zebrafish embryos [2]; zebrafish, in vivo) was “did not show any obvious developmental abnormalities”, the “Uptake of 14C-labeled glucose versus uninjected embryos” value (zebrafish embryos [3]) was “the same” and the “ANX2b and complex detected (duration of MO effect)” value (CAV1-ANX2b heterocomplex; 24, 48 and 72 hpf, FIG. 5B lanes 2-4) was “no ANX2b and thus no complex is detected”. The CAV1-ANX2b heterocomplex present (CAV1-ANX2b heterocomplex) was “only CAV protein monomer”, the ANX2b protein detected (CAV1-ANX2b heterocomplex) was “did not contain ANX2b protein” and the CAV1 protein detected (CAV1-ANX2b heterocomplex) was “only detected as a monomer”. For the same substance, the “ANX2b detected (duration of MO effect)” value (CAV1-ANX2b heterocomplex; 96 hpf, FIG. 5B lane 5) was “again detected” and the “Intestinal fluorescence after feeding NBD-cholesterol” value (zebrafish larvae) was “a subset of the injected larvae failed to accumulate the fluorescent cholesterol analog in the digestive tract; also recorded: significant reduction in intestinal fluorescence”.
“cav1 MO: morpholino antisense oligonucleotide against zebrafish cav1, 5′-TGTCCCGTCCTTGTATCCGCTAGTC-3′ (SEQ ID NO: 10) (all phosphorodiamidate morpholino (PMO))” was tested, and the “Survival to the stage where NBD-cholesterol is ingested” value (zebrafish embryos [2]; MO-injected larvae) was “failed to survive to a stage where NBD-cholesterol is ingested”, the Developmental abnormalities (zebrafish embryos [2]; zebrafish, in vivo) was “early developmental abnormalities including defects in axis elongation and somite patterning” and the “Somite morphology (myoD riboprobe)” value (zebrafish embryos [2]; zebrafish, in vivo) was “abnormal somites”. The CAV1-ANX2b heterocomplex present (CAV1-ANX2b heterocomplex) was “only ANX2 protein monomer and no complex”, the ANX2b protein detected (CAV1-ANX2b heterocomplex) was “seen only as a monomer” and the CAV1 protein detected (CAV1-ANX2b heterocomplex) was “not detected”.
